Source: ChEMBL document CHEMBL1127581, “Evolution of a novel series of [(N,N-dimethylamino)propyl]- and piperazinylbenzanilides as the first selective 5-HT1D antagonists” (J Med Chem, 1994)

How the values were obtained:
[1] = molecular target: T1, 5-hydroxytryptamine receptor 1A (Rattus norvegicus, UniProt P19327); experiment: Binding affinity towards 5-hydroxytryptamine 1A receptor in rat hippocampus using [3H]8-OH-DPAT; format: tissue-based
T1 sequence (P19327 whole entry): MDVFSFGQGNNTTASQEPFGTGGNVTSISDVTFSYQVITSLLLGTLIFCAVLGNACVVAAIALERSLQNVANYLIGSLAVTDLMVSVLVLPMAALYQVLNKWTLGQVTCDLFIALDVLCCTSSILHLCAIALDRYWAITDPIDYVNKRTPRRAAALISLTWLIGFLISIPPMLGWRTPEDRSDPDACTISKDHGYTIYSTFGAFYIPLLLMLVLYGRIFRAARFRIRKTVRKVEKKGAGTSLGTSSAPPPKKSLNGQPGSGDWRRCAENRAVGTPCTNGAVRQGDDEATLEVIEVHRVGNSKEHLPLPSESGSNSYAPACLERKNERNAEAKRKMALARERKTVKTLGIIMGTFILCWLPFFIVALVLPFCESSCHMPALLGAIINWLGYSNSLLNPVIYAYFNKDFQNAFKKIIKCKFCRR

[2] = molecular target: 5-hydroxytryptamine receptor 1D (Cavia porcellus, UniProt Q60484); experiment: In vitro binding affinity towards 5-hydroxytryptamine 1D receptor in guinea-pig striatum in presence of BMY-7378 and mesulergine; format: tissue-based
5-hydroxytryptamine receptor 1D, sequence (Q60484 whole entry): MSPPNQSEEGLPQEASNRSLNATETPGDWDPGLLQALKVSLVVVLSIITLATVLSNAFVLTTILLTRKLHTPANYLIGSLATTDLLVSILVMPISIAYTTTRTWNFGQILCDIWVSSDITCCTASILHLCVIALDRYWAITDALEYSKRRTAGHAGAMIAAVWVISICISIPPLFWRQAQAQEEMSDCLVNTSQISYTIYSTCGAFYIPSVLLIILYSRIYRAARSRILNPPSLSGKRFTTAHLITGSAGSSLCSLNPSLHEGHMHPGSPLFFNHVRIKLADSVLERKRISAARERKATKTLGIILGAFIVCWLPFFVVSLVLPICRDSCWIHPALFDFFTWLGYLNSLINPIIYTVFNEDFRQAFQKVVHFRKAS

[3] = species on record: Canis familiaris; experiment: Tested in vitro for its ability to block 5-HT induced contractile responses in dog isolated saphenous vein; format: functional, Canis lupus familiaris
[4] = species on record: Oryctolagus cuniculus; experiment: Tested for its ability to block 5-HT2A induced contractile responses in rabbit isolated aorta; format: functional
[5] = molecular target: T1, 5-hydroxytryptamine receptor 1A; experiment: Binding affinity towards 5-hydroxytryptamine 1A receptor in rat hippocampus with [3H]8-OH-DPAT; format: tissue-based
[6] = molecular target: 5-hydroxytryptamine receptor 1D (Cavia porcellus) (UniProt Q60484); experiment: Oral effective dose against hypothermia in the guinea pig caused by stimulation of central 5-hydroxytryptamine 1D receptors by the agonist GR-46611; range is 2-9; format: functional
5-hydroxytryptamine receptor 1D (Cavia porcellus), sequence (Q60484 whole entry): as above

[7] = species on record: Oryctolagus cuniculus; experiment: Tested in vitro for its ability to block 5-HT2A induced contraction of rabbit isolated aorta; format: functional
[8] = molecular target: 5-hydroxytryptamine receptor 1D (Cavia porcellus) (UniProt Q60484); experiment: Compound at 45 mg/kg was tested for the inhibition of hypothermia in the guinea pig caused by stimulation of central 5-hydroxytryptamine 1D receptors by the agonist GR-46611; format: functional, organism-based; set-up: dose 45 mg/kg
[9] = molecular target: 5-hydroxytryptamine receptor 1D (Cavia porcellus) (UniProt Q60484); experiment: Oral effective dose against hypothermia in the guinea pig caused by stimulation of central 5-hydroxytryptamine 1D receptors by the agonist GR-46611; format: functional
[10] = molecular target: 5-hydroxytryptamine receptor 1D (Cavia porcellus) (UniProt Q60484); experiment: Oral effective dose against hypothermia in the guinea pig caused by stimulation of central 5-hydroxytryptamine 1D receptor by the agonist GR-46611; format: functional
[11] = molecular target: 5-hydroxytryptamine receptor 1B (Rattus norvegicus, UniProt P28564); experiment: In vitro binding affinity towards 5-hydroxytryptamine 1B receptor in rat striatal membrane with [125I]- iodocyanopindolol; format: cell membranes, Striatum
5-hydroxytryptamine receptor 1B, sequence (P28564 whole entry): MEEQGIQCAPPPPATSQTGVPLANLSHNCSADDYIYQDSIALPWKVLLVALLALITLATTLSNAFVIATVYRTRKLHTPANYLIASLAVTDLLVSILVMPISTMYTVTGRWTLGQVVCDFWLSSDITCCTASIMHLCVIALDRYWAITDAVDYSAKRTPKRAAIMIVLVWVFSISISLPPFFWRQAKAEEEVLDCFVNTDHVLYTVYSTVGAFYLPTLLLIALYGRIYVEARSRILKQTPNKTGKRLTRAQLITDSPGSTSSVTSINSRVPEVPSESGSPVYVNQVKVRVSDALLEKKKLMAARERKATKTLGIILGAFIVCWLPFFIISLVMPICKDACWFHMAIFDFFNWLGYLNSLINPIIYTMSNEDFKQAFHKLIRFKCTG

[12] = molecular target: 5-hydroxytryptamine receptor 1D (Cavia porcellus) (UniProt Q60484); experiment: Compound at 50 mg/kg was tested for the inhibition of hypothermia in the guinea pig caused by stimulation of central 5-hydroxytryptamine 1D receptors by the agonist GR-46611; format: functional, organism-based; set-up: dose 50 mg/kg
[13] = molecular target: 5-hydroxytryptamine receptor 1D (Cavia porcellus) (UniProt Q60484); experiment: Oral effective dose against hypothermia in the guinea pig caused by stimulation of central 5-hydroxytryptamine 1D receptors by the agonist GR-46611;range is 0.2-1.2; format: functional
[14] = molecular target: 5-hydroxytryptamine receptor 1D (Cavia porcellus) (UniProt Q60484); experiment: Compound at 3 mg/kg was tested for the inhibition of hypothermia in the guinea pig caused by stimulation of central 5-hydroxytryptamine 1D receptors by the agonist GR-46611; format: functional, organism-based; set-up: dose 3 mg/kg
[15] = molecular target: 5-hydroxytryptamine receptor 1D (Cavia porcellus) (UniProt Q60484); experiment: Compound at oral dose of 45 mg/kg was tested for percent inhibition against 5-hydroxytryptamine 1D receptor causes hypothermia in guinea pig; format: functional, organism-based; set-up: dose 45 mg/kg

| SMILES | Ki [1] | Ki [2] | ED50 [9] | pKB [3] | pKB [4] | pKB [7] | also measured |
| --- | --- | --- | --- | --- | --- | --- | --- |
| COc1ccc(C(=O)Nc2ccc(-c3ccc(C(=O)O)cc3C)cc2)cc1CCCN(C)C | > 10000 nM | 31.6 nM | – | 8.7 | 5.7 | – | – |
| COc1ccc(NC(=O)c2ccc(-c3ccncc3)cc2)cc1N1CCN(C)CC1 | – | 5.01 nM | – | 8 | – | 6.5 | Ki [5]: 1260 nM; ED50 [6]: 5 mg/kg |
| COc1ccc(C(=O)Nc2ccc(-c3ccncc3)cc2)cc1N1CCN(C)CC1 | – | 3.16 nM | > 45 mg/kg | 7.9 | – | 6.5 | – |
| CCOc1ccc(NC(=O)c2ccc(OC)c(CCCN(C)C)c2)cc1 | – | – | – | 6.9 | 6.2 | – | – |

Second part, led by results:

| Ki [1] | Ki [2] | ED50 [9] | SMILES | pKB [3] | pKB [4] | pKB [7] | also measured |
| --- | --- | --- | --- | --- | --- | --- | --- |
| – | – | 45 mg/kg | COc1ccc(C(=O)Nc2ccc(-c3ccc(CO)cc3C)cc2)cc1CCCN(C)C | 8.5 | 5.9 | – | inhibition [8]: 52% |
| 251 nM | 5.01 nM | – | COc1ccc(NC(=O)c2ccc(-c3ccc(C(=O)N(C)C)cc3C)cc2)cc1N1CCN(C)CC1 | 9.2 | – | 4.9 | ED50 [10]: 0.67 mg/kg; Ki [11]: 6.31 nM |
| 20000 nM | 10 nM | – | COc1ccc(C(=O)Nc2ccc(-c3ccncc3)cc2)cc1CCCN(C)C | 7.8 | 6.3 | – | inhibition [12]: < 30% |
| 1260 nM | 6.31 nM | – | COc1ccc(C(=O)Nc2ccc(-c3ccc(-c4noc(C)n4)cc3C)cc2)cc1N1CCN(C)CC1 | 8.2 | – | 7.8 | ED50 [13]: 0.5 mg/kg; Ki [11]: 6.31 nM |
| – | 3.16 nM | 45 mg/kg | COCCOC(=O)c1ccc(-c2ccc(NC(=O)c3ccc(OC)c(CCCN(C)C)c3)cc2)c(C)c1 | 8.4 | 6.2 | – | inhibition [14]: 66%; inhibition [8]: 55% |
| 5010 nM | 6.31 nM | 45 mg/kg | COc1ccc(C(=O)Nc2ccc(-c3ccc(C=O)cc3C)cc2)cc1CCCN(C)C | 8.4 | 6.3 | – | inhibition [15]: < 30% |
